Source: patent US11730746B2, “17beta-heterocyclyl-digitalis like compounds for the treatment of heart failure” (priority 2018, dated 2023)

How the values were obtained:
Insulin = molecular target: T1, Insulin (Rattus norvegicus, UniProt P15127); assay: Receptor binding 243000
T1 construct: Eurofins (contract assay) 243000
Experimental: (§1) Radioligand binding to a panel of receptors was carried out by Eurofins on crude membrane preparations according to published procedures and by using appropriate reference standard (Eurofins, CVie 101 compound code PT #1207859, study #AB76416, quote #68407-1, for Cvie Therapeutics Limited, Taiwan (R.OC.) on Mar. 5, 2017). CVie 101 was tested at the concentration of 10 μM. No significant interaction was documented, except for Sodium Channel, site 2 from rat (cat #279510), where a significant response (≥50%) was noted (Table 7).

Nicotinic Acetylcholine = assay: Receptor binding 258590; parameters: species or system human; details: 10 μM
Experimental: as §1

dog renal Na,K-ATPase = molecular target: T2, dog renal Na,K-ATPase (Canis lupus familiaris, UniProt P50997); assay: Inhibition of dog renal Na,K-ATPase activity (32P-ATP release); type: biochemical
T2 construct: incubated with 0.3 μg of purified dog kidney enzyme; from tissue; host or cells: dog kidney outer medulla
Experimental: Kidneys were sliced and the outer medulla was dissected, pooled and suspended (1 g/10 ml) in a sucrose-histidine solution, containing 250 mM sucrose, 30 mM histidine and 5 mM EDTA, pH 7.2 and homogenized. […] The pellet was suspended in the sucrose-histidine buffer and incubated for 20 min with a sodium-dodecyl-sulphate (SDS) solution dissolved in a gradient buffer, containing 25 mM imidazole and 1 mM EDTA, pH 7.5. […] The pellet was suspended in the gradient buffer.
Increasing concentrations of the standard ouabain, or tested compound, were incubated with 0.3 μg of purified dog kidney enzyme for 10 min at 37° C. in 120 μl final volume of a medium, containing 140 mM NaCl, 3 mM MgCl2, 50 mM Hepes-Tris, 3 mM ATP, pH 7.5. […] The inhibitory activity was expressed as percent of the control samples carried out in the absence of ouabain or tested compound.

Ryanodine RyR3 = molecular target: T3, Ryanodine RyR3 (Rattus norvegicus, UniProt A0ABK0LPH6); assay: Receptor binding 270300
T3 construct: Eurofins (contract assay) 270300
Experimental: as §1

Angiotensin AT1 = molecular target: T4, Angiotensin AT1 (Homo sapiens, UniProt P30556); assay: Receptor binding 210030
T4 construct: Eurofins 210030; host or cells: crude membrane preparation
T4 sequence (P30556 whole entry): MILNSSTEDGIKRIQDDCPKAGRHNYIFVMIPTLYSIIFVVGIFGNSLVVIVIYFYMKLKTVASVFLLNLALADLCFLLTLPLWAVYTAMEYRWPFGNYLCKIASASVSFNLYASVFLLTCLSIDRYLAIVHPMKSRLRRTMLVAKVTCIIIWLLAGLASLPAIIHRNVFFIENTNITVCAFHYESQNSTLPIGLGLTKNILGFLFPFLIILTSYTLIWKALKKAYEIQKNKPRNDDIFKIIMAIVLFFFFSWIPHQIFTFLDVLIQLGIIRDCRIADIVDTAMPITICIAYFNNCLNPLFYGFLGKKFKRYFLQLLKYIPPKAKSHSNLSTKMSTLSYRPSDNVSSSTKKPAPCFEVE
Experimental: as §1

[1] = system: ATPase, Ca++, skeletal muscle, pig; assay: Eurofins panel 107480; type: biochemical; details: 10 μM
Muscarinic M3 = molecular target: T5, Muscarinic M3 (Homo sapiens, UniProt P20309); assay: Receptor binding 252810
T5 construct: Eurofins (contract assay) 252810
T5 sequence (P20309 whole entry): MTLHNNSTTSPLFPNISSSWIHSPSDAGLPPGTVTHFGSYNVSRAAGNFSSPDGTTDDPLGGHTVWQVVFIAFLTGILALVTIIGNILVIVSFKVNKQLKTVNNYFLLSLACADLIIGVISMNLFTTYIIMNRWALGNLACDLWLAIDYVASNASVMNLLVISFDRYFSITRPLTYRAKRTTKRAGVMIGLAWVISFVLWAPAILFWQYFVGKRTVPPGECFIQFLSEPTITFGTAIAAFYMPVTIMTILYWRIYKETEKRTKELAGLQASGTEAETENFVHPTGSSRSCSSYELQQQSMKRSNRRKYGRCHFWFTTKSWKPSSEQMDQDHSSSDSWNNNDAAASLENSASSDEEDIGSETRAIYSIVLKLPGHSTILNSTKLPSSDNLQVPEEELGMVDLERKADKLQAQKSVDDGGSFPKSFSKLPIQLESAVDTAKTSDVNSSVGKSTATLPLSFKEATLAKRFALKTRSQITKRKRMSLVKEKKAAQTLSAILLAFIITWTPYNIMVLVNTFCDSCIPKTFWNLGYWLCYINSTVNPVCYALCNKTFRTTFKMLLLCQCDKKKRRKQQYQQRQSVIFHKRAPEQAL
Experimental: as §1

[2] = system: Calcium Channel L-type, Dihydropyridine; assay: Receptor binding 214600; parameters: species or system rat; details: 10 μM
Experimental: as §1

HMG-CoA Reductase = molecular target: T6, HMG-CoA Reductase (Homo sapiens, UniProt P04035); assay: Eurofins panel 124010; type: biochemical
T6 construct: Eurofins 124010

Adrenergic α1A = molecular target: T7, Adrenergic α1A (Rattus norvegicus, UniProt P43140); assay: Receptor binding 203100
T7 construct: Eurofins 203100; host or cells: crude membrane preparation
T7 sequence (P43140 whole entry): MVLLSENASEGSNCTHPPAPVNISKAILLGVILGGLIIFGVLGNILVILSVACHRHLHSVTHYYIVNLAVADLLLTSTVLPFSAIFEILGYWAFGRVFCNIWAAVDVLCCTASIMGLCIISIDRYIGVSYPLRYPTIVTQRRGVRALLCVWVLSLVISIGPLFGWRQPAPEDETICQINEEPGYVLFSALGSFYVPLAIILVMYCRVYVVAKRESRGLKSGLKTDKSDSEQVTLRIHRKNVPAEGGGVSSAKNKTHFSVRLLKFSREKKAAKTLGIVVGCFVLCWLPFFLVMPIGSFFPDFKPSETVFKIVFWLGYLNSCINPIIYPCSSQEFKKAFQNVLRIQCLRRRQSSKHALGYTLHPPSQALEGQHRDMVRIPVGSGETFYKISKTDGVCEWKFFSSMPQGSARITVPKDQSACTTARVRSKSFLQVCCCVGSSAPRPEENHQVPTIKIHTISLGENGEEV
Experimental: as §1

[3] = system: guinea pig isolated cardiomyocytes; assay: SR Ca2+ uptake function (loading protocol) in isolated ventricular cardiomyocytes; type: cell-based; details: 100 nM
Experimental: The compounds were characterized for their effect on (i) SR Ca^2+ uptake function, (ii) action potential (AP) in myocytes freshly dissociated from guinea-pig ventricles by retrograde coronary perfusion with enzymatic solution (Rocchetti M et al. J Pharmacol Exper Therap 2005; 313(1):207-215).
Drug effects on SR Ca^2+ uptake rate were evaluated with an SR “loading protocol” specifically devised to rule out the contribution of the Na/Ca exchanger (NCX) and to assess the uptake rate starting at low levels of SR Ca^2+ loading. Under voltage-clamp conditions, intracellular Ca^2+ concentration was dynamically measured by epifluorescence (Fluo4-AM). Membrane current, whose time-dependent component mainly reflected ICaL, was simultaneously recorded. The SR loading protocol consisted in emptying the SR (by a brief caffeine pulse) and then progressively refilling it by voltage steps activating Ca^2+ influx through the sarcolemmal Ca^2+ channel (ICaL). NCX was blocked by omission of Na^+ from intracellular and extracellular solutions. The procedure is in agreement with published methods, with minor modifications (Rocchetti M et al. J Pharmacol Exper Therap 2005; 313(1):207-215).
Drug effects on SR Ca^2+ uptake were analysed by considering multiple parameters: 1) the rate at which Ca^2+ transient (CaT) amplitude increased during the loading protocol, which reflects the rate at which the SR refilled and 2) the time constant of cytosolic Ca^2+ decay (Tdecay) within each pulse, reflecting net Ca^2+ transport rate (by SERCA2a) across the SR membrane (a decrease in Tdecay corresponds to enhanced SR Ca^2+ uptake).

Monoamine Oxidase MAO-A = molecular target: T8, Monoamine Oxidase MAO-A (Homo sapiens, UniProt P21397); assay: Eurofins panel 140010; type: biochemical
T8 construct: Eurofins 140010
T8 sequence (P21397 whole entry): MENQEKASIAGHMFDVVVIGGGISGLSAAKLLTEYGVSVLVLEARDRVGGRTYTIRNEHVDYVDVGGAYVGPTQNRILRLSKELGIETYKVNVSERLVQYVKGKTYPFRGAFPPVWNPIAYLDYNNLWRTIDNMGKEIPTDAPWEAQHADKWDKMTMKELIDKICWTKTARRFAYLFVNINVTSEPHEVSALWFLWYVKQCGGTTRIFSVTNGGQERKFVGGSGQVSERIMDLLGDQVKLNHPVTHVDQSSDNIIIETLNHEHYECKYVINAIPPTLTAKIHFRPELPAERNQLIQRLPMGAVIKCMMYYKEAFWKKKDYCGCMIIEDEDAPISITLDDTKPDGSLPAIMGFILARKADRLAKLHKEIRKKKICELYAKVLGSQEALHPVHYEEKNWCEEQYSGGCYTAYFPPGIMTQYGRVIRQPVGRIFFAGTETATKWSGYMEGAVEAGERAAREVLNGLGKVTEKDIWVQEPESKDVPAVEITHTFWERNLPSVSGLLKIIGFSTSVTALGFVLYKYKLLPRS
Experimental: as §1

Adrenergic α1B = molecular target: T9, Adrenergic α1B (Rattus norvegicus, UniProt P15823); assay: Receptor binding 203200
T9 construct: Eurofins 203200; host or cells: crude membrane preparation
T9 sequence (P15823 whole entry): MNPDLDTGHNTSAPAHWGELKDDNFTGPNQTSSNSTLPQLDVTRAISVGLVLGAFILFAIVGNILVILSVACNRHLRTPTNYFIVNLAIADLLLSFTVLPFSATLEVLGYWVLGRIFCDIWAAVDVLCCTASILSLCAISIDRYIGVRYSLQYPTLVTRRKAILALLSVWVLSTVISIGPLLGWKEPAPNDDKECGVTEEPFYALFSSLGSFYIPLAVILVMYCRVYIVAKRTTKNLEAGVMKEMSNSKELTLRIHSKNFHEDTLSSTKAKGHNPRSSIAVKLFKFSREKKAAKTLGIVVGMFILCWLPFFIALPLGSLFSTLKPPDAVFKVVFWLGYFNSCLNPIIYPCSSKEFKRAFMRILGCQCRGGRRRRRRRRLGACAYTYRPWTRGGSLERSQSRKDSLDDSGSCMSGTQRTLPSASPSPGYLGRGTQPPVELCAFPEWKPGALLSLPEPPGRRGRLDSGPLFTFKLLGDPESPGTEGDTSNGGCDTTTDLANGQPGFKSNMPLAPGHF
Experimental: as §1

hERG potassium channel = molecular target: T10, hERG potassium channel (Homo sapiens, UniProt Q12809); assay: Receptor binding 265900; details: crude membrane preparations
T10 construct: Eurofins (contract assay) 265900
T10 sequence (Q12809 whole entry): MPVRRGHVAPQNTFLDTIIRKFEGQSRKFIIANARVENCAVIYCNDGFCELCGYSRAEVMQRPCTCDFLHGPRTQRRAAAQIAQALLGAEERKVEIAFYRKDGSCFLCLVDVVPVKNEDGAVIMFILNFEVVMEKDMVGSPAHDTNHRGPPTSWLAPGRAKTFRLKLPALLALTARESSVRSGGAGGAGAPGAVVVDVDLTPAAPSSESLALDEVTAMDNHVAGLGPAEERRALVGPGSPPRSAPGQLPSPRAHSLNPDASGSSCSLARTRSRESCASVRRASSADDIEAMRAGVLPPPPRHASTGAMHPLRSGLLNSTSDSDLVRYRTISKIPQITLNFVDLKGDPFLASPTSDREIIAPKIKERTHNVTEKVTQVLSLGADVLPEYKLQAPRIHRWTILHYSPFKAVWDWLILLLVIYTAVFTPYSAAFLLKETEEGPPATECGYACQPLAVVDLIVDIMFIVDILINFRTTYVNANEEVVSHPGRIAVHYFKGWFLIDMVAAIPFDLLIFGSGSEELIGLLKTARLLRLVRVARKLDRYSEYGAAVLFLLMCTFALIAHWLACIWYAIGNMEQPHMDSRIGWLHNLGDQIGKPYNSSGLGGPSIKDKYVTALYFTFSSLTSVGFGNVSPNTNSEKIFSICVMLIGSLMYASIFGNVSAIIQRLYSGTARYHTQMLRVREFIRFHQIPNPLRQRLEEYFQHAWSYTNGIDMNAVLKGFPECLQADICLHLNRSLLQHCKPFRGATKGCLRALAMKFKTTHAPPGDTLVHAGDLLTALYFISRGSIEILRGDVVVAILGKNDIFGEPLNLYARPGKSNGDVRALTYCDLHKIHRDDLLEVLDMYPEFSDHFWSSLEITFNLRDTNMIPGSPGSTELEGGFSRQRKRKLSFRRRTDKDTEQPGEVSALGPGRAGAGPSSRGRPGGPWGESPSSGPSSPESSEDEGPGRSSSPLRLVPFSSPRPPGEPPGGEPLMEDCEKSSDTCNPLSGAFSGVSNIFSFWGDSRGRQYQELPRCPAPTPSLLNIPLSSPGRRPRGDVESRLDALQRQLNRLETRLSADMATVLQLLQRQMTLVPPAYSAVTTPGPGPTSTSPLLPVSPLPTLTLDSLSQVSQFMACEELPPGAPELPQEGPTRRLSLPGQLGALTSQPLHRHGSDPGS
Experimental: as §1

T1 sequence (P15127 27-759 limits assumed): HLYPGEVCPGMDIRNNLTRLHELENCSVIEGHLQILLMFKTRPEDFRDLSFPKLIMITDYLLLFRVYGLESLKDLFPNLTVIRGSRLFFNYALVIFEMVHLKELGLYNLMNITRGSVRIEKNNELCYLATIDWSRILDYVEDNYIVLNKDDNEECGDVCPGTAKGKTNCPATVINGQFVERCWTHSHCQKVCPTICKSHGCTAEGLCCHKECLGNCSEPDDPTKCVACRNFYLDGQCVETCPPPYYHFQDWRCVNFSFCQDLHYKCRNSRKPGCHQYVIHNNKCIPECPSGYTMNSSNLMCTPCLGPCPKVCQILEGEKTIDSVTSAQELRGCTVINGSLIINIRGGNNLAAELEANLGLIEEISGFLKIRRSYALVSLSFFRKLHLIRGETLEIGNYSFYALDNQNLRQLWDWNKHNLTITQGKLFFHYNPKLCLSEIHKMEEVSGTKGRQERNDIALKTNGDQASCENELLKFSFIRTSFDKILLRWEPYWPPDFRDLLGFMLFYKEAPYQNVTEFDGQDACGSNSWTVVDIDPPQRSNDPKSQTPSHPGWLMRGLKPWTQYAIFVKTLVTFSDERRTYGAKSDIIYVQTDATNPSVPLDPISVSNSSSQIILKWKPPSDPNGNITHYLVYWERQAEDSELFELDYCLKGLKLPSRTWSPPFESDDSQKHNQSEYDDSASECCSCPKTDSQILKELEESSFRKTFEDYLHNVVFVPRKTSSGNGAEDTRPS
T1 sequence (P15127 764-1383 partner limits assumed): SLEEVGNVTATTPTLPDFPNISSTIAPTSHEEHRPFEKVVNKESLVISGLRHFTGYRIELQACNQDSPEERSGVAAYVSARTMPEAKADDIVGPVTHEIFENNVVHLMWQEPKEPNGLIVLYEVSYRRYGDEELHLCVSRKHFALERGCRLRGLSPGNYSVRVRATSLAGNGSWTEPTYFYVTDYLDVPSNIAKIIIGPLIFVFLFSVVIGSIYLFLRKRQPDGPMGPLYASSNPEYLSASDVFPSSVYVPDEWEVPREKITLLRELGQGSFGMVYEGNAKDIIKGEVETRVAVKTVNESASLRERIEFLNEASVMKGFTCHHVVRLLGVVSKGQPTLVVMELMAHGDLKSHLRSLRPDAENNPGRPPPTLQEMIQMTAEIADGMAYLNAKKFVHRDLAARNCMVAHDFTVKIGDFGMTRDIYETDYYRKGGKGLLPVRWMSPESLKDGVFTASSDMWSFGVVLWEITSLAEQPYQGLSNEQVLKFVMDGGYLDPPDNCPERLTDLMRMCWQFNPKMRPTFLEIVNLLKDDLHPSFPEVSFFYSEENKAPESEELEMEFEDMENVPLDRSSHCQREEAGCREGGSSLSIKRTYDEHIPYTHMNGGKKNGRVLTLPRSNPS

In the case of C[C@]12CC[C@H](O)C[C@H]1CCC1C2CC[C@]2(C)[C@@H](c3c[nH]cn3)CC[C@]12O (stereo partly drawn) [CVie 101, 3β-hydroxy-5β-10β-methyl-13β-methyl-14β-hydroxy-17β-(imidazol-4-yl)androstane], the inhibition at 10 µM (Insulin) is reported as -7%, the “% inhib” value (Nicotinic Acetylcholine) is reported as 2% and the IC50 (dog renal Na,K-ATPase) is reported as 0.71 µM. For the same molecule, the inhibition at 10 µM (Ryanodine RyR3) was 8%, the inhibition at 10 µM (Angiotensin AT1) was 12% and the “% inhib” value [1] was 14%. For the same molecule, the inhibition at 10 µM (Muscarinic M3) was 15%, the “% inhib” value [2] was −8% and the inhibition at 10 µM (HMG-CoA Reductase) was 7%. For the same molecule, the inhibition at 10 µM (Adrenergic α1A) was 1%, the “rate of Ca2+ transient (CaT) increment during SR reloading” value ([3]; FIG. 1A, 1C) was “increased” and the “time constant of cytosolic Ca2+ decay within each pulse (τdecay)” value ([3]; FIG. 1B, 1D) was “decreased”. For the same molecule, the inhibition at 10 µM (Monoamine Oxidase MAO-A) was 4%, the inhibition at 10 µM (Adrenergic α1B) was 0% and the inhibition at 10 µM (hERG potassium channel) was 4%.
